Source: patent EP0877740B1, “THIOL DERIVATIVES WITH METALLOPEPTIDASE INHIBITORY ACTIVITY” (ZAMBON GROUP S.p.A., priority 1995, dated 1997)
Where two headings read alike, the source gives them in different places.

Experiments:
NEP [1] = target: T1, NEP (Rattus norvegicus, UniProt P07861); test: In vitro NEP-inhibitory activity in rat kidney cortex membranes ([3H][Leu5]-enkephaline hydrolysis); type: biochemical; set-up: Kidneys were removed from male Sprague-Dawley rats weighing approximately 300 g; from tissue; host or cells: rat kidney cortex membranes (male Sprague-Dawley); settings: [3H][Leu5]-enkephaline 15 nM, 30°C
T1 sequence (P07861 1-750): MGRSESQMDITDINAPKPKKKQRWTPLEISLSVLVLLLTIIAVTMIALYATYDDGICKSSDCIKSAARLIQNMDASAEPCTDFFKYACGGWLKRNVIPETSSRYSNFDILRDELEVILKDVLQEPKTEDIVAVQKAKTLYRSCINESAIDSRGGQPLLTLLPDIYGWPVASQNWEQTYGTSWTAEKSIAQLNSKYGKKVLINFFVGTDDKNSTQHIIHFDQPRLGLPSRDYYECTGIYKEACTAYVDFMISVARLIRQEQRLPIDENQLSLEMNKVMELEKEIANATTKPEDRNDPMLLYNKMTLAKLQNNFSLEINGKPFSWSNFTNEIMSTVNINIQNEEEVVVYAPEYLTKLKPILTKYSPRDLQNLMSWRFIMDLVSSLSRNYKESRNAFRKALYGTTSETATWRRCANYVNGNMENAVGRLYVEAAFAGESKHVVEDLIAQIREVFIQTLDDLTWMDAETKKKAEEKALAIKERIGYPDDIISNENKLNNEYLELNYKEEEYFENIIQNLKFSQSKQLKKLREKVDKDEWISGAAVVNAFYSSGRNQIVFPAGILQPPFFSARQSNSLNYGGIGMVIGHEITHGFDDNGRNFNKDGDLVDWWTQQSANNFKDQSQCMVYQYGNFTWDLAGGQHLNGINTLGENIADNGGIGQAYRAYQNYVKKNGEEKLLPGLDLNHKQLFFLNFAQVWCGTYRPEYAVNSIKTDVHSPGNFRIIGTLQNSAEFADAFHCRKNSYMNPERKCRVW
Description: The NEP-inhibitory activity was evaluated in rat kidney cortex membranes prepared according to the procedure described by T. Maeda et al. in Biochim. Biophys.
Kidneys were removed from male Sprague-Dawley rats weighing approximately 300 g and kept at 4°C.
Kidney cortex was carefully dissected, finely minced and suspended in a homogenization buffer (10 mM sodium phosphate pH 7.4 containing 1 mM MgCl2, 30 mM NaCl, 0.02% NaN3) 1:15 weight/volume.
The tissue was then cold homogenized for 30 seconds using an Ultra-Turrax homogenizer.
The membranes were collected from the buffer/sucrose interface, washed twice with 50 mM TRIS/HCl buffer (pH 7.4) and resuspended into the same buffer for storage in small aliquots at -80°C until use.
The NEP-inhibitory activity was evaluated by using the method described by C.
Aliquots of the membrane suspension prepared as above described (concentration 5 µg/ml of proteins) were preincubated in the presence of an aminopeptidase inhibitor (Bestatin - 1 mM) for 10 minutes at 30°C.
Incubation (20 minutes at 30°C) was stopped by adding HCI 0.1M (100 µl).
The formation of the metabolite [^3H]Tyr-Gly-Gly was quantified by chromatography on polystyrene columns (Porapak Q).
The percentage of inhibition of the metabolite formation in the membrane preparations treated with the compounds of formula I and with the comparative compounds with respect to the untreated membrane preparations was expressed as IC50 (nM) value.

NEP [2] = target: T1, NEP; test: Ex vivo NEP-inhibitory activity in kidney homogenates of treated SHR (GAAP substrate); set-up: After the removal of the kidneys from SHR, the renal tissue was homogenized; from tissue; host or cells: kidney homogenate of spontaneously hypertensive rats (SHR); species or system spontaneously hypertensive rats (SHR); settings: rat, SHR kidneys; for inhibition at 30 µmol/kg: oral 30 µmoles/kg
Description: The ex-vivo ACE/NEP-inhibitory activity, in particular, was determined by evaluating the enzymatic activity in tissue homogenates (lung and kidney for ACE and NEP activity, respectively) from spontaneously hypertensive rats (SHR) treated with the tested compounds by intravenous or oral route.
The ex vivo NEP-inhibitory activity was evaluated according to the procedure reported in the literature by M. Orlowsky et al., in Biochemistry 1981, 20, 4942-4950.
The inhibitory activity of the compounds of formula I was evaluated in kidneys of spontaneously hypertensive rats (SHR), 5 minutes after i.v. injection (0.6 and 21 µmoles/kg) and 30 minutes, 60 minutes and 4 hours after oral administration (30 µmoles/kg) of the tested compounds.
After the removal of the kidneys from SHR, the renal tissue was homogenized and incubated for 15 minutes at 37°C in the presence of Glutaryl-Ala-Ala-Phe-2-naphthylamide (GAAP), as a substrate, and aminopeptidase M at pH 7.6.
The reaction was stopped by adding an aqueous solution at 10% of trichloroacetic acid.
The released 2-naphthylamine was determined by adding fast garnet dye (2 ml).
Enzyme reaction rates were determined by measuring the increase in the optical density at 524 nm (OD524) with respect to a standard obtained with 2-naphthylamine complexed with fast garnet.
The NEP-inhibitory activity of the tested compounds was expressed as percentage of NEP-inhibition in SHR kidneys.

IC50 (NEP [1]): 1.8 nM
inhibition at 0.6 µmol/kg (NEP [2]; iv, i.v. 0.6 µmoles/kg, 5 minutes after injection): 34%
inhibition at 21 µmol/kg (NEP [2]; iv, i.v. 21 µmoles/kg, 5 minutes after injection): 49%
inhibition at 30 µmol/kg (NEP [2]; 30 minutes after administration, read-out: NEP-inhibition (kidneys) 30 minutes): 55%
inhibition at 30 µmol/kg (NEP [2]; 60 minutes after administration, read-out: NEP-inhibition (kidneys) 60 minutes): 39%
inhibition at 30 µmol/kg (NEP [2]; 4 hours after administration, read-out: NEP-inhibition (kidneys) 4 hours): 40%
SMILES: O=C(N[C@@H](Cc1ccc(-c2nccs2)cc1)C(=O)O)[C@@H](CS)Cc1ccccc1 [Compound 16, N-[(2S)-3-mercapto-2-phenylmethylpropionyl]-4-(2-thiazolyl)-L-phenylalanine]
